Laboratory results as given in article PMC12169104, “Towards the development of supramolecular self-associating amphiphiles as antibiofilm agents against Pseudomonas aeruginosa and Candida albicans biofilms” (Journal of Materials Chemistry. B, 2025).

Columns and labels:
[1] = Metabolic stability in liver microsomes; type: in vitro ADME, rat
Procedure: Section S5: In vitro and in vivo studies
These studies were performed by Contract Research Organisation (CRO) Pharmaron. The methodology provided within the ESI is published within the express permission of this organisation.
The percentage of a compound recovered during the analysis process should be 100 %; any deviation from this value indicates experimental limitations such as unintended potential non-specific binding events to experimental equipment, solubility issues, etc.
In vitro Absorption, Distribution and Metabolism studies methods: […]
The ionisation
Kinetic Solubility Determination in PBS pH 7.4:
The stock solutions of test and control compounds were prepared in DMSO at 10 mM. From this a 300 µM solution was prepared in duplicate in 100 mM Phosphate Buffered Saline (PBS, pH 7.4 ± 0.1). These solutions were then shaken at 1100rpm for 2 hours at 25°C. […]
Metabolic Stability in Rat, Mouse and Human Liver Microsomes :
The metabolic stability of compounds at a concentration of 1 µM, in rat, mouse and human liver microsomes (BD Gentest, Franklin Lakes NJ) was measured following incubation with hepatic microsomes (0.5 mg of protein / mL) in the presence and absence of cofa ctor (NADPH) at 37 °C.
Aliquots of each incubation were removed at 0.5, 5, 15, 30 and 60 minutes. The reaction was stopped by the addition of cold acetonitrile containing analytical internal standard (IS). […]

[2] = tested on: P. aeruginosa (PAO1) biofilms; test: Biofilm inhibition, XTT metabolic assay; type: cell-based, Pseudomonas aeruginosa; settings: 2.56 mM, Fig. 7(a)
Procedure: Initially, the ability of SSAs 1–5 to inhibit biofilm formation was determined against P. aeruginosa (PAO1) biofilms through an XTT metabolic assay, used to determine the viability of cells within a biofilm (Section S4, ESI ^†).[57] […] We believe that this may indicate that SSAs which contain a squaramide residue may experience an additional barrier to eliciting an antimicrobial effect that is concentration dependent.
Section S4: Microbial materials and methods
General remarks: The reference strains, Pseudomonas aeruginosa PAO1 and Candida albicans SC5314,
were used in this study. The strains were stored at −80 °C in nutrient broth (NB) (1 gL–1 meat extract, 2
gL–1 yeast extract, 5 gL–1 peptone, and 8 gL–1 sodium chloride) supplemented with 25 and 15 % (v/v)
glycerol, respectively. Before each assay, the P. aeruginosa and C. albicans strains were cultured from
the frozen stock onto nutrient agar (NA) (1 gL –1 […], 2 gL–1 yeast extract, 5 gL–1 peptone, 8 gL–
1 sodium chloride, 20 gL–1 agar) and yeast malt extract (YM) agar (3 gL–1 malt extract, 3 gL–1 yeast […]
for 48 hours at 37 °C and OD measurement (at a wavelength of 595 nm, OD 595) (EZ Read 800 Research, […]
introduced to each well. The plates were incubated for 3 hours at 37 °C in the dark and the absorbance
measured at 492 nm using a microtiter plate reader (EZ Read 800 Research, Biochrom, England). […]
evaluated. […]

half-life at 1 µM ([1]; liver microsomes, rat microsomes, 1 µM, read-out: In vitro T1/2) [h] | Hepatic Extraction Ratio (ER) ([1]; rat) | Structure (SMILES) | Inhibition of biofilm formation [2]
> 3.08 | < 0.21 | O=C(O)CNc1c(Nc2ccc(C(F)(F)F)cc2)c(=O)c1=O [SSA 5] | completely inhibit biofilm formation
– | – | O=c1c(NCCCS(=O)(=O)O)c(Nc2ccc(C(F)(F)F)cc2)c1=O [SSA 4] | completely inhibit biofilm formation
